Like-named read-outs stand apart in the source and are kept apart here.
Experiments:
[1] = tested on: WJMSCs; test: CCK-8 assay in undifferentiated WJMSCs; format: cell-based, human; settings: 24 h; Dox 1 µM, 5FU 1 µM, Cis 5 µM; undifferentiated cells
Experimental: Mesenchymal stem cells from Wharton's jelly (WJMSCs) were isolated from the Wharton's jelly of the human umbilical cord via enzymatic digestion as described previously with slight modifications. Experiments were performed after obtaining clearance from Institutional Ethical Committee ([…] Hospital, Bangalore, India. Informed consent was obtained from the donor and all the experiments were performed in accordance with relevant guidelines and regulations. Rat cardiomyoblast cell line, H9C2 was obtained from National Centre for Cell Science (NCCS), Pune, India. WJMSCs were maintained in KnockoutTM Dulbecco's Modified Eagle Medium/Nutrient Mixture F-12 (KO-DMEM/F-12; Gibco, MA, USA) with 10% Fetal bovine serum (FBS, Gibco, MA, USA), 1X GlutaMAX (Gibco, MA, USA), and 1X Antibiotic Antimycotic Solution (Gibco, MA, USA). H9C2 cells were cultured in Dulbecco's Modified Eagle Medium-High Glucose (DMEM-HG; Gibco, MA, USA) supplemented with 10% FBS and 1X Antibiotic-Antimycotic solution at 37 °C in 5% CO2 incubator. […] Similarly, the toxicity of these compounds in terms of the viability of cells was estimated by using the MTT assay and cell counting kit-8 (CCK-8) assay. For MTT assay, after 24 h of treatments, MTT (5 mg/ml of PBS; HiMedia, India) was added, and cells were incubated for 2 h at 37 °C. The formazan crystals that were formed after the incubation were dissolved using dimethyl sulfoxide (DMSO). For the CCK-8 assay, 10 μL of CCK-8 solution (Boster Biological Technology, Pleasanton, CA, USA) was added to each well and incubated for 2 h at 37 °C. The absorbance for MTT and CCK-8 assay was measured at 570 nm and 450 nm respectively using the EnSightTM Multimode plate reader (Perkin Elmer, MA, USA)[49],[50].

[2] = tested on: cardiac markers (NKX2.5, GATA4, Troponin I, Troponin T, MHCα) in WJCM; test: qRT-PCR gene expression of cardiac-specific markers in WJCM
Experimental: Differentiation of WJMSCs was done using a proprietary combination of DNMT and HDAC inhibitors in KO-DMEM/F-12 containing 10% FBS for 48 h. Induction media was replaced with culture media i.e. KO-DMEM/F-12 with 1X GlutaMAX and, 10% FBS after 48 h for 7 days[23].
WJMSC-derived cardiomyocytes (WJCM) and H9C2 were treated with NMJ and QMJ analogues for 24 h. […] To illustrate the toxicity specific to cardiac cells and not a general cytotoxicity, WJMSCs were treated with positive cardiotoxic drugs.
Total ribonucleic acid (RNA) was isolated using RNAiso Plus (TaKaRa, Shiga, Japan) followed by cDNA conversion using PrimeScript™ 1st strand cDNA synthesis kit (TaKaRa, Shiga, Japan). Quantitative reverse transcriptase-polymerase chain reaction (qRT-PCR) was performed by using TB Green™ Premix Ex Taq™ II (Tli RNase H Plus; TaKaRa, Shiga, Japan) for cardiac markers in a QuantStudio™ 5 real-time PCR Systems (Applied Biosystems, USA). All the primers were purchased from Sigma Aldrich, Bangalore, India (Table 1). The relative gene expression was calculated using 2^-∆∆CT and GAPDH, a housekeeping gene was used as endogenous control[52],[53].

[3] = tested on: WJMSCs; test: MTT cell viability assay in undifferentiated WJMSCs; format: cell-based, human; settings: 24 h; Dox 1 µM, 5FU 1 µM, Cis 5 µM; undifferentiated cells
Experimental: Similarly, the toxicity of these compounds in terms of the viability of cells was estimated by using the MTT assay and cell counting kit-8 (CCK-8) assay. For MTT assay, after 24 h of treatments, MTT (5 mg/ml of PBS; HiMedia, India) was added, and cells were incubated for 2 h at 37 °C. The formazan crystals that were formed after the incubation were dissolved using dimethyl sulfoxide (DMSO). For the CCK-8 assay, 10 μL of CCK-8 solution (Boster Biological Technology, Pleasanton, CA, USA) was added to each well and incubated for 2 h at 37 °C.

[4] = tested on: WJMSCs; test: LDH release assay in undifferentiated WJMSCs; format: cell-based, human; settings: 24 h; Dox 1 µM, 5FU 1 µM, Cis 5 µM; undifferentiated cells
Experimental: Mesenchymal stem cells from Wharton's jelly (WJMSCs) were isolated from the Wharton's jelly of the human umbilical cord via enzymatic digestion as described previously with slight modifications. Experiments were performed after obtaining clearance from Institutional Ethical Committee ([…] Hospital, Bangalore, India. Informed consent was obtained from the donor and all the experiments were performed in accordance with relevant guidelines and regulations. Rat cardiomyoblast cell line, H9C2 was obtained from National Centre for Cell Science (NCCS), Pune, India. WJMSCs were maintained in KnockoutTM Dulbecco's Modified Eagle Medium/Nutrient Mixture F-12 (KO-DMEM/F-12; Gibco, MA, USA) with 10% Fetal bovine serum (FBS, Gibco, MA, USA), 1X GlutaMAX (Gibco, MA, USA), and 1X Antibiotic Antimycotic Solution (Gibco, MA, USA). H9C2 cells were cultured in Dulbecco's Modified Eagle Medium-High Glucose (DMEM-HG; Gibco, MA, USA) supplemented with 10% FBS and 1X Antibiotic-Antimycotic solution at 37 °C in 5% CO2 incubator. […] The experiment was performed as per the manufacturer's protocol. Absorbance was taken at 490 nm and 680 nm (background signal) using multimode plate reader. LDH activity was calculated by subtracting absorbance taken at 680 nm from 490 nm.

[5] = tested on: cardiomyocytes (WJCM and H9C2 cells); test: Cardiotoxicity across parameters as summarised in the discussion (WJCM and H9C2 cells); format: cell-based, human and rat; settings: for overall cardiotoxicity across the parameters analyzed: analogues at Vero IC50 concentration, 24 h
From the text: We investigated the effects of 3-hydroxyflavone (QMJ-2, QMJ-5, and QMJ-6) and cinnamyl sulfonamide-hydroxamate (NMJ-1, NMJ-2, NMJ-3) in WJCM and H9C2 cells using the concentrations reported for non-cancerous Vero cells. The prerequisite for any synthesized drug molecules is that they should be nontoxic to cardiac cells.

[6] = tested on: H9C2 cells; test: MTT cell viability assay in H9C2 cells; format: cell-based, rat; settings: 24 h; analogues at Vero IC50 concentration; Dox 1 µM
Experimental: (§1) Similarly, the toxicity of these compounds in terms of the viability of cells was estimated by using the MTT assay and cell counting kit-8 (CCK-8) assay. For MTT assay, after 24 h of treatments, MTT (5 mg/ml of PBS; HiMedia, India) was added, and cells were incubated for 2 h at 37 °C. The formazan crystals that were formed after the incubation were dissolved using dimethyl sulfoxide (DMSO). For the CCK-8 assay, 10 μL of CCK-8 solution (Boster Biological Technology, Pleasanton, CA, USA) was added to each well and incubated for 2 h at 37 °C. The absorbance for MTT and CCK-8 assay was measured at 570 nm and 450 nm respectively using the EnSight™ Multimode plate reader (Perkin Elmer, MA, USA)[49],[50].

[7] = tested on: WJMSC-derived cardiomyocytes (WJCM); test: MTT and CCK-8 cell viability assays in WJCM; format: cell-based, human; settings: 24 h; analogues at Vero IC50 concentration; Dox 1 µM
Experimental: as §1

[8] = tested on: Vero, a non-cancerous cell line; design: method as in PMID 25824412, PMID 30687400; settings: read-out: IC50 in Vero cells; cited from earlier work
[9] = tested on: H9C2 cells; test: LDH release assay in H9C2 cells; format: cell-based, rat; settings: 24 h; analogues at Vero IC50 concentration
Experimental: (§2) The experiment was performed as per the manufacturer’s protocol. Absorbance was taken at 490 nm and 680 nm (background signal) using multimode plate reader. LDH activity was calculated by subtracting absorbance taken at 680 nm from 490 nm.

[10] = tested on: colorectal cancer; design: method as in PMID 25824412, PMID 30687400; settings: previously reported studies; cited from earlier work
[11] = tested on: WJMSC-derived cardiomyocytes (WJCM); test: LDH release assay in WJCM; format: cell-based, human; settings: 24 h; analogues at Vero IC50 concentration
Experimental: as §2

[12] = qRT-PCR, analogues at Vero IC50 concentration, Dox, 5FU, Cis as positive cardiotoxic drugs
[13] = discussion summary, cell model not specified
[14] = qRT-PCR, analogues at Vero IC50 concentration

Row | Structure (SMILES) | CCK-8 in WJMSCs [1] | cardiac marker gene expression in WJCM (all markers together) [2, 12] | MTT cell viability in WJMSCs [3] | LDH release in WJMSCs [4] | cardiac marker gene expression in WJCM (all markers together) [2] | ROS level in treated cardiomyocytes [5, 13] | active mitochondria status in treated cardiomyocytes [5, 13] | intracellular calcium level in treated cardiomyocytes [5, 13] | decrease in viability of H9C2 cells (MTT) [6] | IC50 [8] | overall cardiotoxicity across the parameters analyzed [5] | cytotoxic effect against cardiomyocytes by MTT, CCK-8 and LDH assay [5, 13] | LDH release in H9C2 cells [9] | GATA4 gene expression in WJCM [2, 14] | MHCα gene expression in WJCM [2, 14] | Troponin I gene expression in WJCM [2, 14] | concentration found effective against cancer [10] | LDH release in WJCM [11] | other results
1 | O=c1[nH]cc(F)c(=O)[nH]1 [5FU, 5-fluorouracil] | no significant difference | reduced all the cardiac markers expression drastically | no significant difference | no significant difference |  |  |  |  |  |  |  |  |  |  |  |  |  |  | 
2 | N.N.[Cl][Pt][Cl] [Cis, cisplatin] | no significant difference |  |  | no significant difference | reduced all the cardiac markers expression drastically |  |  |  |  |  |  |  |  |  |  |  |  |  | 
3 | COc1cccc2c1C(=O)c1c(O)c3c(c(O)c1C2=O)C[C@@](O)(C(=O)CO)C[C@@H]3O[C@H]1C[C@H](N)[C@H](O)[C@H](C)O1 [Dox, doxorubicin, reference compound] | no significant difference | reduced all the cardiac markers expression drastically | no significant difference | no significant difference |  | increased ROS level | affected cardiomyocyte mitochondrial activity | alternation in calcium | ~25% |  |  |  |  |  |  |  |  |  | NO production / NO levels [5, 13]: reduced NO production; toxicity / cell viability in WJCM (MTT, CCK-8), result in words [7]: reduced cell viability drastically
4 | O=C(/C=C/c1ccc(S(=O)(=O)NCc2cccs2)cc1)NO [NMJ-1] |  | drastic reduction |  |  |  | increased ROS levels | loss of mitochondria | increased the level | 10–20% | 9.7 µM | cardiotoxic | induced toxicity | increase in LDH | decreased the expression | decreased the expression | decreased the expression | 5.07 µM | increase in LDH | 
5 | Cc1ccc(-c2oc3ccccc3c(=O)c2O)cc1 [QMJ-2, 3-hydroxy-2-(4-methylphenyl)-4H-1-benzopyran-4-one] |  |  |  |  | drastic reduction | increased ROS levels | loss of mitochondria | increased the level | 10–20% | 140 µM | cardiotoxic | induced toxicity | increase in LDH | decreased the expression | decreased the expression | decreased the expression | 68 µM | increase in LDH | Troponin T gene expression in WJCM, result in words [2, 14]: milder increase
6 | Cc1ccc(-c2oc3cc(C)ccc3c(=O)c2O)cc1 [QMJ-5, 3-Hydroxy-7-methyl-2-(4-methylphenyl)-4H-1-benzopyran-4-one] |  | drastic reduction |  |  |  | increased ROS levels | loss of mitochondria | increased the level | 10–20% | 55.6 µM | cardiotoxic | induced toxicity | increase in LDH | decreased the expression | decreased the expression | decreased the expression | 27.4 µM | increase in LDH | 

— article PMC9734143, “An efficient human stem cells derived cardiotoxicity testing platform for testing oncotherapeutic analogues of quercetin and cinnamic acid” (Scientific Reports, 2022)
